Several values for one entry are separate records, joined by “and”; a condition that tells them apart may be missing. Equal entries are not always repeated. Entries after “also recorded” stand apart in the source; their conditions may differ. Where two headings read alike, the source gives them in different places.
How the values were obtained:
[1] = test system: patients; conditions: cited from earlier work; for incidence of diarrhea / incidence of second malignancy: ref 10 (ibrutinib), 14 (acalabrutinib), 15 (zanubrutinib)
[2] = test system: patients with r/r MCL; conditions: cited from earlier work
[3] = test system: patients with r/r MCL; assay: phase 1/2 study efficacy; type: in vivo, human
[4] = pharmacokinetics in patients with r/r MCL
[5] = test system: patients with r/r MCL; assay: phase 1/2 study safety; type: in vivo, human
[6] = PET assessment, median follow-up 26 months
[7] = median follow-up of 26.7 months
[8] = 29 patients with best response CR
[9] = IRC-assessed, n=106, follow-up 23.8 mo
[10] = Investigator-assessed, n=106, follow-up 23.8 mo
[11] = PET assessment, median follow-up 18.4 months

## CC#CC(=O)N1CCC[C@H]1c1nc(-c2ccc(C(=O)Nc3ccccn3)cc2)c2c(N)nccn12 [acalabrutinib]
[1]
  major hemorrhage: 3.0%
  incidence of diarrhea: 31%
  incidence of second malignancy: 12%
[2]; [6]
  CR: 43%
  ORR: 81%
[2]; acalabrutinib trial
  median DOR: 26 months
  median PFS: 20 months

## C=CC(=O)N1CCC[C@@H](n2nc(-c3ccc(Oc4ccccc4)cc3)c3c(N)ncnc32)C1 [ibrutinib]
[1]
  grade 3 or greater atrial fibrillation and atrial flutter: 4%
  grade 3 or higher hypertension events: 8%
[2]
  median TTR: 1.9 months
[2]; [7]
  ORR in patients with bulky tumors: 67%
  ORR in patients with ≥2 prior treatments: 63%
[2]; pivotal study 1104, r/r MCL, median 15.3-month follow-up, CT-based
  ORR: 65.8%
[2]; pivotal study 1104
  median DOR: 17.5 months
  median PFS: 13.9 months
[2]; pivotal study 1104, median 15.3-month follow-up, CT-based
  CR: 17.1%

## C=CC(=O)N1CCC(c2ccc(C(N)=O)c(-c3ccc(Oc4ccccc4)cc3)n2)CC1 [orelabrutinib]
[3]; [8]
  DOR rate at 24 months: ~80%
  OS at 24 months: ~100%
  PFS rate at 24 months: ~80%
[3]; CT/MRI, baseline median SPD 2514.4 mm^2
  median reduction percentage in the SPD of target lesions: 87.2%
[3]; IRC assessment, n=106
  patients with objective response: 86 patients
[3]; IRC-assessed
  median DOR: 22.9 months
[3]; [9]
  CR: 27.4%
  DCR: 86.8 (78.8-92.6) %
  PD: 8.5%
  PR: 53.8%
[3]; IRC-assessed, n=106, median follow-up 23.8 mo
  ORR: 81.1 (72.4-88.1) %
[3]; IRC, follow-up 10.5 mo
  CR: 25.5%
[3]; [10]
  CR: 34.9%
  DCR: 87.7 (79.9-93.3) %
  ORR: 82.1 (73.4-88.9) %
  PD: 5.7%
  PR: 47.2%
[3]; full analysis set
  median PFS: 22.0 months and 22 months
[3]; investigator assessment, n=106
  patients with objective response: 87 patients
[3]; n=106
  median TTR: 1.9 months
[3]; subgroup Age ≥65
  ORR (95% CI), IRC: 83.3%
[3]; subgroup Baseline Splenomegaly Yes
  ORR (95% CI), IRC: 66.7%
[3]; subgroup Ki-67 ≥30%
  ORR (95% CI), IRC: 79.4%
[3]; subgroup Prior CD20 Antibody Therapy No
  ORR (95% CI), IRC: 91.7%
[3]; subgroup Prior lines of therapy ≥2
  ORR (95% CI), IRC: 75.9%
[3]; subgroup Tumor Stage III/IV
  ORR (95% CI), IRC: 80%
[3]; subgroup longest target lesion ≥10 cm (bulky disease)
  ORR (95% CI), IRC: 81.8%
[4]; human, in vivo, 150 mg, Tmax (median, minimum-maximum), Day 1 single, 150 mg
  Tmax: 2 h
[4]; patients with r/r MCL
  Coefficients of variation of pharmacokinetic parameters: < 30%
[5]; cycle 1, deemed unrelated to treatment
  atrial fibrillation, grade 1: 1 episode
[5]; n=106
  AEs leading to discontinuation of treatment: 4.7%
  Alanine aminotransferase increase (any grade): Incidence: 10.4%
  Alanine aminotransferase increase (any grade): Number of patients: 11
  All TEAEs: Incidence: 95.3%
  All TEAEs: Number of patients: 101
  All grade ≥3 TEAEs: Incidence: 51.9%
  All grade ≥3 TEAEs: Number of patients: 55
  Anemia (any grade): Incidence: 19.8%
  Anemia (any grade): Number of patients: 21
  Anemia (grade ≥3): Incidence: 7.5%
  Anemia (grade ≥3): Number of patients: 8
  Cough (any grade): Incidence: 16.0%
  Cough (any grade): Number of patients: 17
  Diarrhea (any grade): Incidence: 11.3%
  Diarrhea (any grade): Number of patients: 12
  Disease progression (grade ≥3 AE): Incidence: 4.7%
  Disease progression (grade ≥3 AE): Number of patients: 5
  Grade 3 or higher infection events: 14.2%
  Hematuria (any grade): Incidence: 10.4%
  Hematuria (any grade): Number of patients: 11
  Hyperglycemia (any grade): Incidence: 12.3%
  Hyperglycemia (any grade): Number of patients: 13
  Hypertension (any grade): Incidence: 17%
  Hypertension (any grade): Number of patients: 18
  Hypertension (grade ≥3): Incidence: 5.7%
  Hypertension (grade ≥3): Number of patients: 6
  Hypoalbuminemia (any grade): Incidence: 10.4%
  Hypoalbuminemia (any grade): Number of patients: 11
  Hypokalemia (any grade): Incidence: 17.0%
  Hypokalemia (any grade): Number of patients: 18
  Hypokalemia (grade ≥3): Incidence: 2.8%
  Hypokalemia (grade ≥3): Number of patients: 3
  Leukocytosis (grade ≥3): Incidence: 3.8%
  Leukocytosis (grade ≥3): Number of patients: 4
  Leukopenia (any grade): Incidence: 19.8%
  Leukopenia (any grade): Number of patients: 21
  Lymphocytosis (grade ≥3): Incidence: 3.8%
  Lymphocytosis (grade ≥3): Number of patients: 4
  Neutropenia (any grade): Incidence: 24.5%
  Neutropenia (any grade): Number of patients: 26
  Neutropenia (grade ≥3): Incidence: 8.5%
  Neutropenia (grade ≥3): Number of patients: 9
  Pneumonia (any grade): Incidence: 11.3%
  Pneumonia (any grade): Number of patients: 12
  Pneumonia (grade ≥3): Incidence: 5.7%
  Pneumonia (grade ≥3): Number of patients: 6
  Pneumonitis (any grade): Incidence: 17.9%
  Pneumonitis (any grade): Number of patients: 19
  Pneumonitis (grade ≥3): Incidence: 3.8%
  Pneumonitis (grade ≥3): Number of patients: 4
  Prolonged QT interval (any grade): Incidence: 11.3%
  Prolonged QT interval (any grade): Number of patients: 12
  Pyrexia (any grade): Incidence: 12.3%
  Pyrexia (any grade): Number of patients: 13
  Rash (any grade): Incidence: 17.0%
  Rash (any grade): Number of patients: 18
  SAE Pneumonia: Incidence: 5.7%
  SAE Pneumonitis: Incidence: 4.7%
  SAE Progressive disease: Incidence: 4.7%
  Soft tissue infection (grade ≥3): Incidence: 2.8%
  Soft tissue infection (grade ≥3): Number of patients: 3
  Thrombocytopenia (any grade): Incidence: 34.0%
  Thrombocytopenia (any grade): Number of patients: 36
  Thrombocytopenia (grade ≥3): Incidence: 13.2%
  Thrombocytopenia (grade ≥3): Number of patients: 14
  Upper respiratory tract infection (any grade): Incidence: 27.4%
  Upper respiratory tract infection (any grade): Number of patients: 29
  Weight increase (any grade): Incidence: 11.3%
  Weight increase (any grade): Number of patients: 12
  bleeding events (any): 34.9%
  bleeding events grade 1: 31.1%
  bleeding events grade 2: 3.8%
  death from infection due to acute myeloid leukemia: 1%
  death from lung infection due to the common cold: 1%
  deaths due to drug-related AEs (fatal TRAEs): no fatal TRAEs were reported; also recorded: No deaths due to drug-related AEs were reported
  deaths from AEs deemed unrelated to treatment: 2%
  deaths from disease progression: 15%
  diarrhea judged as related to treatment: 3.8%
  discontinued treatment because of drug-related AEs: 2.8%
  drug-related grade 3 or higher infection events: 6.6%
  drug-related infection events: 34%
  drug-related pneumonia: 7.5%
  drug-related upper respiratory tract infection: 13.2%
  grade 3 or higher second primary malignancy, atrial fibrillation/flutter, diarrhea, or bleeding events: No grade 3 or higher second primary malignancy, atrial fibrillation/flutter, diarrhea, or bleeding events were observed
  major hemorrhage (grade 3 or higher, serious, or any grade CNS bleeding): No patient experienced major hemorrhage
  microscopic hematuria: 6.6%
  patients who died during the study: 27 patients
  patients with treatment-related grade 3 or higher AEs: 34.9%
  petechiae: 4.7%
  proportion of AEs that were grade 1 or 2: 89%
  purpura: 4.7%
  rate of second malignancy: 2.8%
  second primary malignancy: 3 patients
  treatment-related AEs leading to dose interruption: 17%
  treatment-related anemia: 14.2%
  treatment-related decreases in neutrophils: 22.6%
  treatment-related decreases in platelets: 32.1%
  treatment-related decreases in white blood cells: 18.9%
  treatment-related hypertension: 15.1%

## C=CC(=O)N1CCC([C@@H]2CCNc3c(C(N)=O)c(-c4ccc(Oc5ccccc5)cc4)nn32)CC1 [zanubrutinib]
[1]
  major hemorrhage: 5.4%
  rate of treatment discontinuation: 12.5%
  incidence of diarrhea: 23%
  incidence of second malignancy: 14%
[2]; [11]
  CR: 68.6%
  ORR: 84%
[2]
  median TTR: 2.8 months
[2]; zanubrutinib trial
  median DOR: 19.5 months
  median PFS: 22.1 months
